Reference: article PMC10648877, “Novel Substituted Azoloazines with Anticoagulant Activity” (International Journal of Molecular Sciences, 2023)

Tests used:
[1] = system: platelet-poor plasma (PPP); test: Prothrombin time (PT), rabbit blood coagulogram in vitro; settings: 100 μM, M ± m, n = 6;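 also: clotting time read chronometrically on a hemocoagulometer using commercial reagent kits, with dabigatran etexilate at the same concentration as reference anticoagulant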
Method: The study was performed on platelet-poor plasma (PPP) stabilized with a 3.8% sodium citrate solution in a ratio of 9:1 according to the method described in [34]. Dabigatran etexilate (Boehringer Ingelheim Pharma GmbH and Co., Ingelheim am Rhein, Germany) was used as the reference drug. Test compounds and the reference drug were evaluated at a concentration of 100 μM. Effect on rabbit blood coagulograms in vitro was determined chronometrically with a SOLAR hemocoagulometer (Minsk, Belarus) using commercial kits (Technology-Standard, Barnaul, Russia) as per the manufacturer’s instructions. The following parameters were determined: activated partial thromboplastin time, thrombin time, and prothrombin time.

[2] = system: platelet-poor plasma (PPP); test: Activated partial thromboplastin time (APTT), rabbit blood coagulogram in vitro; type: biochemical; settings: 100 μM, M ± m, n = 6;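 also: clotting time read chronometrically on a hemocoagulometer with commercial reagent kits, one of several coagulogram parameters alongside thrombin and prothrombin time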
Method: Test compounds and the reference drug were evaluated at a concentration of 100 μM. Effect on rabbit blood coagulograms in vitro was determined chronometrically with a SOLAR hemocoagulometer (Minsk, Belarus) using commercial kits (Technology-Standard, Barnaul, Russia) as per the manufacturer’s instructions. The following parameters were determined: activated partial thromboplastin time, thrombin time, and prothrombin time.

[3] = system: platelet-poor plasma (PPP); test: Thrombin time (TT), rabbit blood coagulogram in vitro; type: biochemical; settings: rabbit blood in vitro, 100 μM; for TT: M ± m, n = 6

Row | Structure (SMILES) | PT [1] [s] | melting point [°C] | APTT [2] [s] | increase of thrombin time relative to the control [3] [times] | TT [3] [s]
1 | CCOC(=O)C1=C(C)Nc2ncnn2C1c1cccc(NC(=O)CN)c1 (centres unmarked) [Compound 10a, Ethyl 7-(3-(2-aminoacetamido)phenyl)-5-methyl-4,7-dihydro-[1,2,4]triazolo[1,5-a]pyrimi-dine-6-carboxylate] | 13.2 ± 1.0 | 270 to 272 | 30.9 ± 0.6 | 3.5 | 48.6 ± 22.4
2 | N=C(N)Nc1nnc2nnc(SC3CCCC3)n2n1 [Compound 16b, 6-Guanidino-3-cyclopentylthio-[1,2,4]triazolo[4,3-b][1,2,4,5]tetrazine] | 13.9 ± 0.5 | 252 to 253 | 24.7 ± 1.2 | – | 22.7 ± 1.7
3 | N=C(N)Nc1nnc2nnc(SCc3cccc(F)c3)n2n1 [Compound 16] | 14.1 ± 0.3 | 235 to 237 | 26.3 ± 1.1 | – | 25.9 ± 1.6
4 | CCCCCCCCSc1nnc2nnc(NC(=N)N)nn12 [Compound 16a, 6-Guanidino-3-octylthio-[1,2,4]triazolo[4,3-b][1,2,4,5]tetrazine] | 12.2 ± 0.2 | > 260 | 29.1 ± 1.4 | – | 34.3 ± 4.7
